# Measured values reported in patent US20150105252A1, “SUBSTITUTED PYRAZOLES AS HERBICIDES” (E I DU PONT DE NEMOURS AND COMPANY, priority 2013, published 2015).
# How the values were obtained:
# crabgrass, large = test: Test C postemergence; format: in vivo, Digitaria sanguinalis; settings: for Plant response rating (scale of 0 to 100 where 0 is no effect and 100 is complete control), Crabgrass, Large: Postemergence, 31 g ai/ha, visually evaluated after 13 to 15 days; for Crabgrass, Large plant response rating / Plant response rating, Crabgrass, Large: postemergence; for Crabgrass, Large plant response rating: 62 g ai/ha, scale 0 to 100
# How it was run: (§1)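 Scores of 0 (no effect) to 100 (complete control) were assigned by eye after 13–15 days, comparing treated pots with controls. Soil-applied (preemergence) treatments went onto seeds in loam and sand; foliar (postemergence) treatments onto 1- to 4-leaf plants in peat medium.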
# lambsquarters = test: Test C preemergence; format: in vivo, Chenopodium album; settings: for Lambsquarters plant response rating / Plant response rating, Lambsquarters: preemergence; for Plant response rating, Lambsquarters: 125 g ai/ha, scale 0 to 100, 0 = no effect, 100 = complete control
# How it was run: as §1
# barnyardgrass [1] = test: Test A postemergence; format: in vivo, Echinochloa crus-galli
# How it was run: (§2)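 Pre- and postemergence greenhouse test; loam+sand; cpd in non-phytotox. solvent/surfactant; post at 1–2 leaf, 2–10 cm; visual score ~10 d, 0 = none, 100 = complete control.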
# ducksalad = test: Test B flood; format: in vivo, Heteranthera limosa; settings: 250 g ai/ha, visual rating on 0 to 100 scale (0 no effect, 100 complete control), 13 to 15 days
# How it was run: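 2-leaf plants; pots flooded 3 cm over soil; compound added to paddy water, depth kept constant. Greenhouse 13–15 d. Visual rating vs controls, 0–100 scale (100 = complete control); dash = no result.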
# chickweed = test: Test C postemergence; format: in vivo, Stellaria media; settings: for Plant response rating (scale of 0 to 100 where 0 is no effect and 100 is complete control), Chickweed: Postemergence, 31 g ai/ha, visually evaluated after 13 to 15 days; for Chickweed plant response rating / Plant response rating, Chickweed: postemergence; for Chickweed plant response rating: 62 g ai/ha, scale 0 to 100
# How it was run: as §1
# johnsongrass = test: Test C preemergence; format: in vivo, Sorghum halepense; settings: for Johnsongrass plant response rating / Plant response rating, Johnsongrass: preemergence; for Plant response rating, Johnsongrass: 125 g ai/ha, scale 0 to 100, 0 = no effect, 100 = complete control
# How it was run: as §1
# corn = test: Test C postemergence; format: in vivo, Zea mays; settings: for Plant response rating (scale of 0 to 100 where 0 is no effect and 100 is complete control), Corn: Postemergence, 31 g ai/ha, visually evaluated after 13 to 15 days; for Corn plant response rating / Plant response rating, Corn: postemergence; for Corn plant response rating: 62 g ai/ha, scale 0 to 100
# How it was run: as §1
# soybean = test: Test C preemergence; format: in vivo, Glycine max; settings: for Soybean plant response rating / Plant response rating, Soybean: preemergence; for Plant response rating, Soybean: 125 g ai/ha, scale 0 to 100, 0 = no effect, 100 = complete control
# How it was run: as §1
# pigweed = test: Test C postemergence; format: in vivo, Amaranthus retroflexus; settings: for Plant response rating (scale of 0 to 100 where 0 is no effect and 100 is complete control), Pigweed: Postemergence, 31 g ai/ha, visually evaluated after 13 to 15 days; for Pigweed plant response rating / Plant response rating, Pigweed: postemergence; for Pigweed plant response rating: 62 g ai/ha, scale 0 to 100
# How it was run: as §1
# morningglory = test: Test A preemergence; format: in vivo, Ipomoea spp.; settings: preemergence
# How it was run: as §2
# blackgrass = test: Test C preemergence; format: in vivo, Alopecurus myosuroides; settings: for Blackgrass plant response rating / Plant response rating, Blackgrass: preemergence; for Plant response rating, Blackgrass: 125 g ai/ha, scale 0 to 100, 0 = no effect, 100 = complete control
# How it was run: as §1
# ryegrass, Italian = test: Test C postemergence; format: in vivo, Lolium multiflorum; settings: for Plant response rating (scale of 0 to 100 where 0 is no effect and 100 is complete control), Ryegrass, Italian: Postemergence, 31 g ai/ha, visually evaluated after 13 to 15 days
# How it was run: as §1
# barnyardgrass [2] = test: Test C preemergence; format: in vivo, Echinochloa crus-galli; settings: for Barnyardgrass plant response rating / Plant response rating, Barnyardgrass: preemergence; for Plant response rating, Barnyardgrass: 125 g ai/ha, scale 0 to 100, 0 = no effect, 100 = complete control
# How it was run: as §1
# [3] = 250 g ai/ha, scale 0 to 100 (0 no effect, 100 complete control)
# [4] = 125 g ai/ha, scale 0 to 100, 0 no effect, 100 complete control
# [5] = 31 g ai/ha, visual rating, scale 0 to 100 (0 no effect, 100 complete control), 13 to 15 days
# [6] = 62 g ai/ha, scale 0 to 100 (0 no effect, 100 complete control), 13 to 15 days
# [7] = 250 g ai/ha, scale 0 to 100, 0 is no effect, 100 is complete control
# [8] = Postemergence, 500 g ai/ha, 0 to 100 scale (0 no effect, 100 complete control)
# [9] = postemergence, 125 g ai/ha, about 10 days, visual rating on 0 to 100 scale (0 no effect, 100 complete control)
# [10] = postemergence, 250 g ai/ha, scale 0 to 100 (0 no effect, 100 complete control)
# [11] = postemergence, 125 g ai/ha, scale 0 to 100, 0 no effect, 100 complete control
structure (smiles),measurement,setting,value
O=C(NC1CC1)c1cc(CCCl)n(Cc2ccnc(C(F)(F)F)c2)n1 [Compound 144],"Plant response rating (scale of 0 to 100 where 0 is no effect and 100 is complete control), Crabgrass, Large","crabgrass, large",10
same,"Crabgrass, Large plant response rating","crabgrass, large",10
same,"Plant response rating, Crabgrass, Large","crabgrass, large; [3]",55
same,"Plant response rating, Crabgrass, Large","crabgrass, large; [4]",10
same,Lambsquarters plant response rating,lambsquarters; [5],95
same,Lambsquarters plant response rating,lambsquarters; [6],98
same,"Plant response rating, Lambsquarters",lambsquarters; 13 to 15 days,98
same,Lambsquarters plant response rating,lambsquarters; [7],98
same,Barnyardgrass plant response rating,barnyardgrass [1]; [8],90
same,Barnyardgrass plant response rating,barnyardgrass [1]; [9],70
same,"Plant response rating, Ducksalad",ducksalad,95
same,"Plant response rating (scale of 0 to 100 where 0 is no effect and 100 is complete control), Chickweed",chickweed,70
same,Chickweed plant response rating,chickweed,65
same,"Plant response rating, Chickweed",chickweed; [3],90
same,"Plant response rating, Chickweed",chickweed; [4],80
same,Johnsongrass plant response rating,johnsongrass; [5],0
same,Johnsongrass plant response rating,johnsongrass; [6],35
same,"Plant response rating, Johnsongrass",johnsongrass; 13 to 15 days,75
same,Johnsongrass plant response rating,johnsongrass; [7],100
same,"Plant response rating (scale of 0 to 100 where 0 is no effect and 100 is complete control), Corn",corn,5
same,Corn plant response rating,corn,10
same,"Plant response rating, Corn",corn; [3],25
same,"Plant response rating, Corn",corn; [4],15
same,Soybean plant response rating,soybean; [5],5
same,Soybean plant response rating,soybean; [6],50
same,"Plant response rating, Soybean",soybean; 13 to 15 days,80
same,Soybean plant response rating,soybean; [7],98
same,"Plant response rating (scale of 0 to 100 where 0 is no effect and 100 is complete control), Pigweed",pigweed,65
same,Pigweed plant response rating,pigweed,75
same,"Plant response rating, Pigweed",pigweed; [3],95
same,"Plant response rating, Pigweed",pigweed; [4],85
same,Morningglory plant response rating (0 to 100 scale),"morningglory; 125 g ai/ha, visual injury approx. 10 days after treatment",80
same,Morningglory plant response rating,"morningglory; 500 g ai/ha, visual injury after approx. 10 days, 0 to 100 scale (0 no effect, 100 complete control)",100
same,Blackgrass plant response rating,blackgrass; [5],40
same,Blackgrass plant response rating,blackgrass; [6],40
same,"Plant response rating, Blackgrass",blackgrass; 13 to 15 days,90
same,Blackgrass plant response rating,blackgrass; [7],90
same,"Plant response rating (scale of 0 to 100 where 0 is no effect and 100 is complete control), Ryegrass, Italian","ryegrass, Italian",5
same,"Plant response rating, Ryegrass, Italian","ryegrass, Italian; [10]",5
same,"Plant response rating, Ryegrass, Italian","ryegrass, Italian; [11]",5
same,Barnyardgrass plant response rating,barnyardgrass [2]; [5],75
same,Barnyardgrass plant response rating,barnyardgrass [2]; [6],98
same,"Plant response rating, Barnyardgrass",barnyardgrass [2]; 13 to 15 days,100
same,Barnyardgrass plant response rating,barnyardgrass [2]; [7],100
CCOc1cc(C(=O)NCC(F)(F)F)nn1Cc1ccnc(OC(F)F)c1 [Compound 128],"Plant response rating (scale of 0 to 100 where 0 is no effect and 100 is complete control), Crabgrass, Large","crabgrass, large",5
same,"Crabgrass, Large plant response rating","crabgrass, large",5
same,"Plant response rating, Crabgrass, Large","crabgrass, large; [3]",85
same,"Plant response rating, Crabgrass, Large","crabgrass, large; [4]",30
same,"Plant response rating (scale of 0 to 100), Lambsquarters","lambsquarters; Preemergence, 250 g ai/ha",98
same,Lambsquarters plant response rating,lambsquarters; [5],98
same,Lambsquarters plant response rating,lambsquarters; [6],100
same,"Plant response rating, Lambsquarters",lambsquarters; 13 to 15 days,98
same,Barnyardgrass plant response rating,barnyardgrass [1]; [8],100
same,Barnyardgrass plant response rating,barnyardgrass [1]; [9],100
same,"Plant response rating, Ducksalad",ducksalad,95
same,"Plant response rating (scale of 0 to 100 where 0 is no effect and 100 is complete control), Chickweed",chickweed,70
same,Chickweed plant response rating,chickweed,75
same,"Plant response rating, Chickweed",chickweed; [3],95
same,"Plant response rating, Chickweed",chickweed; [4],85
same,"Plant response rating (scale of 0 to 100), Johnsongrass","johnsongrass; Preemergence, 250 g ai/ha",98
same,Johnsongrass plant response rating,johnsongrass; [5],45
same,Johnsongrass plant response rating,johnsongrass; [6],85
same,"Plant response rating, Johnsongrass",johnsongrass; 13 to 15 days,95
same,"Plant response rating (scale of 0 to 100 where 0 is no effect and 100 is complete control), Corn",corn,5
same,Corn plant response rating,corn,5
same,"Plant response rating, Corn",corn; [3],30
same,"Plant response rating, Corn",corn; [4],10
same,"Plant response rating (scale of 0 to 100), Soybean","soybean; Preemergence, 250 g ai/ha",90
same,Soybean plant response rating,soybean; [5],35
same,Soybean plant response rating,soybean; [6],55
same,"Plant response rating, Soybean",soybean; 13 to 15 days,80
same,"Plant response rating (scale of 0 to 100 where 0 is no effect and 100 is complete control), Pigweed",pigweed,65
same,Pigweed plant response rating,pigweed,70
same,"Plant response rating, Pigweed",pigweed; [3],90
same,"Plant response rating, Pigweed",pigweed; [4],65
same,"Plant response rating (scale of 0 to 100), Blackgrass","blackgrass; Preemergence, 250 g ai/ha",90
same,Blackgrass plant response rating,blackgrass; [5],50
same,Blackgrass plant response rating,blackgrass; [6],90
same,"Plant response rating, Blackgrass",blackgrass; 13 to 15 days,90
same,"Plant response rating (scale of 0 to 100 where 0 is no effect and 100 is complete control), Ryegrass, Italian","ryegrass, Italian",5
same,"Ryegrass, Italian plant response rating","ryegrass, Italian; postemergence, 62 g ai/ha, scale 0 to 100",10
same,"Plant response rating, Ryegrass, Italian","ryegrass, Italian; [10]",30
same,"Plant response rating, Ryegrass, Italian","ryegrass, Italian; [11]",15
same,"Plant response rating (scale of 0 to 100), Barnyardgrass","barnyardgrass [2]; Preemergence, 250 g ai/ha",100
same,Barnyardgrass plant response rating,"barnyardgrass [2]; 31 g ai/ha, scale 0 to 100 (0 no effect, 100 complete control), 13 to 15 days",80
same,Barnyardgrass plant response rating,barnyardgrass [2]; [6],90
same,"Plant response rating, Barnyardgrass",barnyardgrass [2]; 13 to 15 days,98
